Reference: ChEMBL document CHEMBL5104159, “Synthesis and antitumor activity of a series of novel N-aryl-5-(2,2,2-trifluoroethoxy)-1,5-dihydro-2H-pyrrol-2-ones derivatives” (Bioorg Med Chem Lett, 2022)
Structures can show the parent of a compound that is named as a salt. Active and inactive are the calls of the source. The calls are words filed in the database; no cut-off is given here.

What was measured:
A549 = test: Antiproliferative activity against human A549 cells assessed as inhibition of cell growth; type: functional, cell-based
K562 [1] = test: Induction of apoptosis in human K562 cells assessed as early apoptotic cells at 10 uM by AnnexinV-FITC/propidium iodide staining based flow cytometric analysis (reference value: 2.56%); type: functional
K562 [2] = test: Induction of apoptosis in human K562 cells assessed as dead cells at 10 uM by AnnexinV-FITC/propidium iodide staining based flow cytometric analysis (reference value: 5.94%); type: functional
K562 [3] = test: Induction of cell cycle arrest in human K562 cells assessed as accumulation of cells at S phase at 10 uM by flow cytometry analysis (reference value: 21.32%); type: functional
MDA-MB-231 = test: Antiproliferative activity against human MDA-MB-231 cells assessed as inhibition of cell growth; type: functional, cell-based
K562 [4] = test: Induction of apoptosis in human K562 cells assessed as increase in Bax/Bcl-2 ratio at 100 uM measured after 48 hrs by human apoptosis array analysis; type: functional, cell-based
K562 [5] = test: Induction of cell cycle arrest in human K562 cells assessed as accumulation of cells at G1 phase at 10 uM by flow cytometry analysis (reference value: 73.3%); type: functional
K562 [6] = test: Induction of apoptosis in human K562 cells assessed as increase in cleaved caspase-3 level at 100 uM measured after 48 hrs by human apoptosis array analysis; type: functional, cell-based
K562 [7] = test: Induction of apoptosis in human K562 cells assessed as increase in SMAC/Diablo level at 100 uM measured after 48 hrs by human apoptosis array analysis; type: functional, cell-based
K562 [8] = test: Induction of apoptosis in human K562 cells assessed as late apoptotic cells at 10 uM by AnnexinV-FITC/propidium iodide staining based flow cytometric analysis (reference value: 5.1%); type: functional
K562 [9] = test: Induction of apoptosis in human K562 cells assessed as viable cells at 10 uM by AnnexinV-FITC/propidium iodide staining based flow cytometric analysis (reference value: 86.4%); type: functional; settings: read-out: Activity
HeLa = test: Antiproliferative activity against human HeLa cells assessed as inhibition of cell growth; type: functional, cell-based
K562 [10] = test: Induction of cell cycle arrest in human K562 cells assessed as accumulation of cells at G2 phase at 10 uM by flow cytometry analysis (reference value: 5.38%); type: functional
K562 [11] = test: Antiproliferative activity against human K562 cells assessed as inhibition of cell growth; type: functional, cell-based
[12] = Cytotoxicity against human L02 cells assessed as cell viability at 2 ug/ml relative to control; type: toxicity, cell-based; settings: at 2 µg/mL, read-out: Activity
K562 [13] = test: Induction of apoptosis in human K562 cells assessed as increase in pro-caspase 3 level at 100 uM measured after 48 hrs by human apoptosis array analysis; type: functional, cell-based
K562 [14] = test: Induction of apoptosis in human K562 cells assessed as increase in FADD level at 100 uM measured after 48 hrs by human apoptosis array analysis; type: functional, cell-based
K562 [15] = test: Induction of apoptosis in human K562 cells assessed as increase in HTRA2/omi level at 100 uM measured after 48 hrs by human apoptosis array analysis; type: functional, cell-based

Row | Structure (SMILES) | IC50 (A549) [µM] | IC50 (MDA-MB-231) [µM] | IC50 (HeLa) [µM] | IC50 (K562 [11]) [µM] | further results
1 | CC(C)(C)c1ccc(N2C(=O)C=CC2OCC(F)(F)F)cc1 (stereo unspecified) | 8.5 | 1.86 | 18.1 | 0.07 | Activity (K562 [1]): 33.3%; Activity (K562 [2]): 2.4%; Activity (K562 [3]): 0.98%; Activity (K562 [4]): Active; Activity (K562 [5]): 18.84%; Activity (K562 [6]): Active; Activity (K562 [7]): Active; Activity (K562 [8]): 22.8%; viability at 10 µM (K562 [9]): 41.5%; Activity (K562 [10]): 80.18%; viability at 2 ug/ml [12]: 81%; Activity (K562 [13]): Active; Activity (K562 [14]): Active; Activity (K562 [15]): Active
2 | O=C1C=CC(OCC(F)(F)F)N1c1ccc(Cl)cc1F (stereo unspecified) | 6.63 | 6.1 | 8.32 | 6.21 | 
3 | COc1cccc2c1C(=O)c1c(O)c3c(c(O)c1C2=O)C[C@@](O)(C(=O)CO)C[C@@H]3O[C@H]1C[C@H](N)[C@H](O)[C@H](C)O1 [DOXORUBICIN HYDROCHLORIDE] | 0.15 |  | 1.07 | 0.34 | 
4 | CCc1ccc(N2C(=O)C=CC2OCC(F)(F)F)cc1 (stereo unspecified) | 8.09 | 7.84 | 6.51 | 4.47 | 
5 | O=C1C=CC(OCC(F)(F)F)N1c1ccc(Br)cc1 (stereo unspecified) | 6.96 | 7.57 | 7.06 | 3.27 | 
6 | O=C1C=CC(OCC(F)(F)F)N1c1ccc(F)c(Cl)c1 (stereo unspecified) | 7.69 | 3.44 | 3.11 | 6.32 | viability at 2 ug/ml [12]: 58%
7 | O=C1C=CC(OCC(F)(F)F)N1c1ccccc1F (stereo unspecified) | 44.9 | 20.6 | 19.2 | 12 | 
8 | O=C1C=CC(OCC(F)(F)F)N1c1ccccc1 (stereo unspecified) | 23.4 | 15.3 | > 100 | 24.6 | 
9 | COc1ccc(/C=C\c2cc(OC)c(OC)c(OC)c2)cc1O [COMBRETASTATIN A4] |  |  |  |  | Activity (K562 [1]): 43.7%; Activity (K562 [2]): 1.36%; Activity (K562 [3]): 30.46%; Activity (K562 [5]): 21.92%; Activity (K562 [8]): 22.2%; viability at 10 µM (K562 [9]): 32.7%; Activity (K562 [10]): 47.61%
10 | O=C1C=CC(OC(C(F)(F)F)C(F)(F)F)N1c1ccc(Cl)cc1 (stereo unspecified) | 4.3 | 2.41 | 1.89 | 4.48 | 
11 | O=C1C=CC(OCC(F)(F)F)N1c1ccc(C(F)(F)F)cc1 (stereo unspecified) | 8.39 | 2.3 | 36.2 | 13.1 | 
12 | O=C1C=CC(OCC(F)(F)F)N1c1ccc([N+](=O)[O-])cc1 (stereo unspecified) | 3.27 | 2.83 | 2.38 | 1.53 | 
13 | CC(C)NC1CC(=O)N(c2ccc(F)c(Cl)c2)C1OCC(F)(F)F (stereo unspecified) | > 100 | > 100 | 6.61 | 10.5 | viability at 2 ug/ml [12]: 102%
14 | O=C1c2c(O)ccc(O)c2C(=O)c2c(NCCNCCO)ccc(NCCNCCO)c21 [MITOXANTRONE] | 0.07 |  | 0.04 | 0.14 | 
15 | O=C1C=CC(OCC(F)(F)F)N1c1cc(F)cc(F)c1 (stereo unspecified) | 5 | 7.84 | 8.46 | 0.52 | Activity (K562 [1]): 25.5%; Activity (K562 [2]): 2.26%; Activity (K562 [3]): 30.58%; Activity (K562 [5]): 15.21%; Activity (K562 [8]): 22.3%; viability at 10 µM (K562 [9]): 50%; Activity (K562 [10]): 54.21%; viability at 2 ug/ml [12]: 66%
16 | O=C1C=CC(OCC(F)(F)F)N1c1cc(Cl)cc(Cl)c1 (stereo unspecified) | 1.63 | 2.43 | 5.92 | 1.64 | 
17 | CC(C)c1ccc(N2C(=O)C=CC2OCC(F)(F)F)cc1 (stereo unspecified) | 9.57 | 6.64 | 5.8 | 6.62 | 
18 | Cc1ccc(N2C(=O)C=CC2OCC(F)(F)F)cc1 (stereo unspecified) | 13.7 | 15.8 | 9.38 | 7.14 | 
19 | COC(=O)c1ccc(N2C(=O)C=CC2OCC(F)(F)F)cc1 (stereo unspecified) | 8.17 | 12.1 | 5.7 | 14.7 | 
